Assay results reported in patent US20040067998A1, “Antifungal and/or antiparasitic pharmaceutical composition and novel indole derivatives as active principle of such a composition” (priority 2003, published 2004).
Converted amounts (≈) assume the structure as drawn. “And” between values parts separate entries of the source, which are not always exact repeats. Equal entries are not always repeated. Where two headings read alike, the source gives them in different places.

Experiments:
Assay type in all cases: cell-based
[1] = test system: Candida albicans (strain n° CA980001); experiment: Antifungal activity on a clinical strain of Candida albicans (MTT colorimetric microplate test); conditions: for CMI or CI80 Candida albicans (CA980001) / MIC: strain CA980001; for activity of inhibition of Candida albicans (in words): summary of Tables 27 to 40; for MIC: read-out: CMI or CI80 Candida albicans (CA980001)
[2] = test system: Aspergillus fumigatus (strain n°AF 980003); experiment: Antifungal activity on a clinical strain of Aspergillus fumigatus (Alamar Blue microplate test); conditions: for MIC / CMI or CI80 Aspergillus fumigatus (AF980003): strain AF980003; for MIC: read-out: CMI or CI80 Aspergillus fumigatus (AF980003); for activity against Aspergillus fumigatus (in words): summary of Tables 27 to 40
[3] = test system: promastigote stage of Leishmania mexicana; experiment: Antiparasitic activity on the promastigote form of Leishmania (MTT); conditions: for IC50: read-out: CI50 Leishmania mexicana Promastigotes
[4] = promastigotes, 36 h at 26° C., MTT

Fc1ccc(C(C(n2ccc3ccccc32)n2nnc3ccccc32)n2ccnc2)cc1 (mixture of isomers) [compound 83]
CMI or CI80 Candida albicans (CA980001) [1]: 55 ± 5 μM and 23 ± 2 μg/mL | MIC [2]: >100 µM | CI50 Leishmania mexicana Promastigotes [3]: 1.85 ± 0.03 µg/mL | IC50 [3]: 4.4 ± 0.07 µM

CCN1CCc2cccc(C(c3cccc(Cl)c3)n3ccnc3)c21 (racemic) [compound 48]
CMI or CI80 Candida albicans (CA980001) ([1]; 24 h at 37° C., MTT): 0.06 ± 0.01 μM and 0.02 ± 0.01 μg/ml | activity of inhibition of Candida albicans (in words) [1]: most active | CMI or CI80 Aspergillus fumigatus (AF980003) ([2]; Alamar Blue): 58 ± 4 μM and 26 ± 2 μg/ml | activity against Aspergillus fumigatus (in words) [2]: strong activity | activity against Leishmania mexicana (in words) [3]: strong activity | CI50 Leishmania mexicana Promastigotes [3, 4]: 1 ± 0.3 µg/mL (≈ 2.96 µM) | IC50 [3, 4]: 3 ± 1 µM

Fc1ccc(Cn2c(Cn3ccnc3)cc3ccccc32)cc1.O=[N+]([O-])O [3n]
CMI or CI80 Candida albicans (CA980001) ([1]; 24 h at 37° C., MTT): 16 ± 6 μM and 6 ± 2 μg/ml

CC(C)(C)c1ccc(Cn2cc(Cn3ccnc3)c3ccccc32)cc1.O=C(O)/C=C/C(=O)O [7f]
MIC ([1]; 24 h at 37° C., MTT): >100 µM | CMI or CI80 Aspergillus fumigatus (AF980003) ([2]; Alamar Blue): 70 ± 3 μM and 32.17 ± 3 μg/ml | CI50 Leishmania mexicana Promastigotes [3]: 3.9 ± 0.09 µg/mL | activity against Leishmania mexicana (in words) [3]: strong activity | IC50 [3]: 8.4 ± 0.5 µM

Fc1ccc(Cn2ccc3ccc(Cn4ccnc4)cc32)cc1.O=[N+]([O-])O [19n]
CMI or CI80 Candida albicans (CA980001) ([1]; 24 h at 37° C., MTT): 77 ± 1 μM and 28.36 ± 1 μg/ml | MIC ([2]; Alamar Blue): >100 µM

CCn1c(C(c2cccc(Br)c2)n2ccnc2)c(C)c2ccccc21.O=[N+]([O-])O (stereo not drawn) [26n]
CMI or CI80 Candida albicans (CA980001) [1]: 60 ± 1 μM and 27 ± 1 μg/mL

CCn1c(C(c2ccc(Br)cc2)n2ccnc2)c(C)c2ccccc21.O=[N+]([O-])O (stereo not drawn) [27n]
CMI or CI80 Candida albicans (CA980001) [1]: 57 ± 4 μM and 25 ± 2 μg/mL

CCn1c(C(c2cccc(Cl)c2)n2ccnc2)c(C)c2ccccc21.O=[N+]([O-])O (stereo not drawn) [28n]
CMI or CI80 Candida albicans (CA980001) [1]: 58 ± 2 μM and 24 ± 1 μg/mL

CCn1c(C(c2ccc(Cl)cc2)n2ccnc2)c(C)c2ccccc21.O=[N+]([O-])O (stereo not drawn) [29n]
CMI or CI80 Candida albicans (CA980001) [1]: 6 ± 1 μM and 2 ± 1 μg/mL | activity of inhibition of Candida albicans (in words) [1]: significant activity

CCn1c(C(c2ccc(F)cc2)n2ccnc2)c(C)c2ccccc21.O=[N+]([O-])O (stereo not drawn) [31n]
CMI or CI80 Candida albicans (CA980001) [1]: 7 ± 0.3 μM and 2.77 ± 0.3 μg/mL | activity of inhibition of Candida albicans (in words) [1]: significant activity | CMI or CI80 Aspergillus fumigatus (AF980003) [2]: 16 ± 3 μM and 6 ± 1 μg/mL | activity against Aspergillus fumigatus (in words) [2]: most active | activity against Leishmania mexicana (in words) [3]: most active | IC50 ([3]; promastigotes): < 0.1 µM

CCn1cc(C(c2cccc(Cl)c2)n2ccnc2)c2ccccc21.O=[N+]([O-])O (stereo not drawn) [40n]
CMI or CI80 Candida albicans (CA980001) [1]: 7 ± 1 μM and 3.1 ± 1 μg/mL | activity of inhibition of Candida albicans (in words) [1]: significant activity

CCn1cc(C(c2ccc(Cl)cc2)n2ccnc2)c2ccccc21.O=[N+]([O-])O (stereo not drawn) [41n]
CMI or CI80 Candida albicans (CA980001) [1]: 19 ± 10 μM and 8 ± 4 μg/mL

CCn1cc(C(c2ccc(Cl)cc2Cl)n2ccnc2)c2ccccc21.O=[N+]([O-])O (stereo not drawn) [42n]
CMI or CI80 Candida albicans (CA980001) [1]: 73 ± 3 μM and 32 ± 1 μg/mL

CCn1ccc2cccc(C(c3cccc(Cl)c3)n3ccnc3)c21.O=[N+]([O-])O (stereo not drawn) [55n]
CMI or CI80 Candida albicans (CA980001) [1]: 0.039 µg/mL | MIC [1]: 0.098 µM | activity of inhibition of Candida albicans (in words) [1]: most active | MIC [2]: >100 µM

CCn1ccc2cccc(C(c3ccc(Cl)cc3)n3ccnc3)c21.O=[N+]([O-])O (stereo not drawn) [56n]
CMI or CI80 Candida albicans (CA980001) [1]: 0.16 µg/mL | MIC [1]: 0.4 µM | activity of inhibition of Candida albicans (in words) [1]: most active

Clc1ccc(Cn2cc(CCCCn3ccnc3)c3ccccc32)cc1.O=[N+]([O-])O [61n]
MIC [1]: >100 µM | MIC [2]: >100 µM | CI50 Leishmania mexicana Promastigotes [3]: 20.05 ± 0.3 µg/mL | IC50 [3]: 62 ± 0.3 µM

CCC(c1cn(Cc2ccc(Cl)cc2)c2ccccc12)n1ccnc1.O=[N+]([O-])O (stereo not drawn) [64n]
CMI or CI80 Candida albicans (CA980001) [1]: 36 ± 10 μM and 15 ± 4 μg/mL | CMI or CI80 Aspergillus fumigatus (AF980003) [2]: 57 ± 5 μM and 23.53 μg/mL | activity against Aspergillus fumigatus (in words) [2]: strong activity | CI50 Leishmania mexicana Promastigotes ([3]; promastigotes): 2.97 ± 0.02 µg/mL | IC50 ([3]; promastigotes): 7.2 ± 0.07 µM

CCCC(c1cn(Cc2ccc(Cl)cc2)c2ccccc12)n1ccnc1.O=C(O)/C=C/C(=O)O (stereo not drawn) [65f]
MIC [1]: >100 µM | MIC [2]: >100 µM | CI50 Leishmania mexicana Promastigotes [3]: 37.7 ± 4.5 µg/mL | IC50 [3]: 78.7 ± 9.5 µM
